Test results as given in patent US8222262B2, “Indazolyl derivatives useful as potassium channel modulating agents” (Neurosearch A/S, priority 2006, dated 2012).

How the values were obtained:
hSK3 channels = target: T1, hSK3 channels (Homo sapiens, UniProt Q9UGI6); experiment: Whole-cell patch-clamp recording of ionic current through SK channels (subtype 3) in HEK293 cells expressing hSK3; assay type: cell-based; details: baseline current at -75 mV, free Ca2+ 0.3-0.4 μM, room temperature
T1 construct: expressed in transfected cells; host or cells: HEK293
Description: The ionic current through small-conductance Ca^2+-activated K^+ channels (SK channels, subtype 3) is recorded using the whole-cell configuration of the patch-clamp technique.
HEK293 tissue culture cells expressing hSK3 channels were grown in DMEM (Dulbecco's Modified Eagle Medium) supplemented with 10% FCS (foetal calf serum) at 37° C. in 5% CO2. At 60-80% confluency, cells were harvested by trypsin treatment and seeded on cover slips.
Experiments are carried out a patch-clamp set-up. Cells plated on coverslips are placed in a 15 μl perfusion chamber (flowrate ˜1 ml/min) mounted on an inverted microscope placed on a vibration-free table in a grounded Faraday cage. All experiments are performed at room temperature (20-22° C.). […] Data are stored directly on the hard-disk and analysed by IGOR software (Wavemetrics, Lake Oswega, Oreg., USA).
The whole-cell configuration of the patch-clamp technique is applied. […] Cell capacitance is electronically compensated and the resistance between the pipette and the cell interior (the series resistance, Rs) is measured and compensated for. […]
The intracellular (pipette) solution contained: 154 mM KCl, 10 mM HEPES, 10 mM EGTA. Concentrations of CaCl2 and MgCl2 needed to obtain the desired free concentrations of Ca^2+ (0.3-0.4 μM, Mg^2+ always 1 mM) were calculated by EqCal software (Cambridge, UK) and added. […]

| melting point [°C] | SC100 (Stimulating Concentration required for increasing the baseline current by 100%) (hSK3 channels) [µM] | SMILES |
| --- | --- | --- |
| 278.1 to 281.4 |  | c1ccc2c(c1)cnn2-c1nc(NC2CCCCC2)c2ccccc2n1 [Compound A3, Cyclohexyl-(2-indazol-1-yl-quinazolin-4-yl)-amine] |
| 224.7 to 226.7 | 0.08 | Cc1cc(Nc2ccc(Cl)cc2)nc(-n2cc3ccccc3n2)n1 [Compound A1, (4-Chloro-phenyl)-(2-indazol-2-yl-6-methyl-pyrimidin-4-yl)-amine] |
| 249 to 252 |  | Clc1ccc(Nc2cncc(-n3cc4ccccc4n3)n2)cc1 [Compound D1, (4-Chloro-phenyl)-(6-indazol-2-yl-pyrazin-2-yl)-amine] |
